Measured values reported in publication PMC4710522, “A Novel Triazolopyridine-Based Spleen Tyrosine Kinase Inhibitor That Arrests Joint Inflammation” (PLoS ONE, 2016).
Values joined by “and” are separate entries in the source; they are usually repeats but may differ in a detail not shown here. Equal values may be shown once.

Experiments:
Assay in all cases: SelectScreen kinase assay
Format in all cases: biochemical
[1] = molecular target: T1, BTK_h (Homo sapiens, UniProt Q06187); conditions: KM ATP, read-out: % control
T1 construct: purchased Life Technologies (Invitrogen) SelectScreen, Z'-LYTE / Adapta
Description: (§1) Syk kinase mode of inhibition studies, including parameters described in Fig 1, were conducted on the LC3000 platform by Caliper Life Sciences (Hopkinton, MA) according to standard protocols developed by the supplier. […] Non-kinase enzyme assays and GPCR, ion channel, and transporter binding assays were run by CEREP (France). Non-GLP manual patch clamp hERG assays were run by ChanTest (Cleveland, Ohio). Vivid® Assay kits (Life Technologies) were used to measure the cytochrome P450 inhibition of the compound against CYP3A, CYP2C9, CYP2C19, CYP2D6, and CYP1A2, as described.
(§2) Kinase activity was measured using either the Z’-Lyte® or the Adapta® protocols as part of the SelectScreen™ profiling service offered at Life Technologies (Grand Island, NY). For the single point measurements (Part A), CC-509 was kept constant at 3 µM while ATP concentrations [ATP] used were at the KM for ATP (KM ATP) for that specific enyzme, at 10 or 100 µM ATP (10 ATP or 100 ATP, respectively), as indicated. Values expressed as percent control (% control) relative to DMSO-only wells (uninhibited, 100%).
(§3) Kinase activity was measured using either the Z’-Lyte® or the Adapta® protocols as part of the SelectScreen™ profiling service offered at Life Technologies (Grand Island, NY). […] Values expressed as percent control (% control) relative to DMSO-only wells (uninhibited, 100%).

[2] = molecular target: T2, PrKX_h (Homo sapiens, UniProt P51817); conditions: KM ATP, read-out: % control
T2 construct: purchased Life Technologies (Invitrogen) SelectScreen, Z'-LYTE / Adapta
Description: as §1, §2, §3

[3] = molecular target: T3, Rse_h (Homo sapiens, UniProt Q06418); conditions: KM ATP, read-out: % control
T3 construct: purchased Life Technologies (Invitrogen) SelectScreen, Z'-LYTE / Adapta
Description: as §1, §2, §3

[4] = molecular target: T4, p38-gamma_h (Homo sapiens, UniProt P53778); conditions: KM ATP, read-out: % control
T4 construct: purchased Life Technologies (Invitrogen) SelectScreen, Z'-LYTE / Adapta
Description: as §1, §2, §3

[5] = molecular target: T5, PDGFR-alpha_D842V_h (Homo sapiens, UniProt P16234, D842V); conditions: KM ATP, read-out: % control
T5 construct: purchased Life Technologies (Invitrogen) SelectScreen, Z'-LYTE / Adapta
Description: as §1, §2, §3

[6] = molecular target: T6, SIK2_h (Homo sapiens, UniProt Q9H0K1); conditions: KM ATP, read-out: % control
T6 construct: purchased Life Technologies (Invitrogen) SelectScreen, Z'-LYTE / Adapta
Description: as §1, §2, §3

[7] = molecular target: T7, CHK2_h (Homo sapiens, UniProt O96017); conditions: KM ATP, read-out: % control
T7 construct: purchased Life Technologies (Invitrogen) SelectScreen, Z'-LYTE / Adapta
Description: as §1, §2, §3

[8] = molecular target: T8, Bmx_h (Homo sapiens, UniProt P51813); conditions: KM ATP, read-out: % control
T8 construct: purchased Life Technologies (Invitrogen) SelectScreen, Z'-LYTE / Adapta
Description: as §1, §2, §3

[9] = molecular target: T9, c-RAF_h (Homo sapiens, UniProt P04049); conditions: 100 µM ATP, read-out: % control
T9 construct: purchased Life Technologies (Invitrogen) SelectScreen, Z'-LYTE / Adapta
Description: as §1, §2, §3

[10] = molecular target: T10, MSK1_h (Homo sapiens, UniProt O75582); conditions: KM ATP, read-out: % control
T10 construct: purchased Life Technologies (Invitrogen) SelectScreen, Z'-LYTE / Adapta
Description: as §1, §2, §3

[11] = molecular target: T11, MLK1_h (Homo sapiens, UniProt P80192); conditions: KM ATP, read-out: % control
T11 construct: purchased Life Technologies (Invitrogen) SelectScreen, Z'-LYTE / Adapta
Description: as §1, §2, §3

[12] = molecular target: T12, NEK6_h (Homo sapiens, UniProt Q9HC98); conditions: KM ATP, read-out: % control
T12 construct: purchased Life Technologies (Invitrogen) SelectScreen, Z'-LYTE / Adapta
Description: as §1, §2, §3

[13] = molecular target: T13, SGK3_h (Homo sapiens, UniProt Q96BR1); conditions: KM ATP, read-out: % control
T13 construct: purchased Life Technologies (Invitrogen) SelectScreen, Z'-LYTE / Adapta
Description: as §1, §2, §3

[14] = molecular target: T14, MARK1_h (Homo sapiens, UniProt Q9P0L2); conditions: KM ATP, read-out: % control
T14 construct: purchased Life Technologies (Invitrogen) SelectScreen, Z'-LYTE / Adapta
Description: as §1, §2, §3

[15] = molecular target: T15, PAK7_h (Homo sapiens, UniProt Q9P286); conditions: KM ATP, read-out: % control
T15 construct: purchased Life Technologies (Invitrogen) SelectScreen, Z'-LYTE / Adapta
Description: as §1, §2, §3

[16] = molecular target: JAK1_h (Homo sapiens, UniProt P23458)
Description: as §1, §2, §3

[17] = molecular target: T16, IRAK4_h (Homo sapiens, UniProt Q9NWZ3); conditions: KM ATP, read-out: % control
T16 construct: purchased Life Technologies (Invitrogen) SelectScreen, Z'-LYTE / Adapta
Description: as §1, §2, §3

[18] = molecular target: T17, MST1_h (Homo sapiens, UniProt Q13043); conditions: KM ATP, read-out: % control
T17 construct: purchased Life Technologies (Invitrogen) SelectScreen, Z'-LYTE / Adapta
Description: as §1, §2, §3

[19] = molecular target: T18, PKC-theta_h (Homo sapiens, UniProt Q04759); conditions: KM ATP, read-out: % control
T18 construct: purchased Life Technologies (Invitrogen) SelectScreen, Z'-LYTE / Adapta
Description: as §1, §2, §3

[20] = molecular target: T19, GRK4_h (Homo sapiens, UniProt P32298); conditions: KM ATP, read-out: % control
T19 construct: purchased Life Technologies (Invitrogen) SelectScreen, Z'-LYTE / Adapta
Description: as §1, §2, §3

[21] = molecular target: T20, CaMKII-beta_h (Homo sapiens, UniProt Q13554); conditions: KM ATP, read-out: % control
T20 construct: purchased Life Technologies (Invitrogen) SelectScreen, Z'-LYTE / Adapta
Description: as §1, §2, §3

[22] = molecular target: T21, PRKG1_h (Homo sapiens, UniProt Q13976); conditions: KM ATP, read-out: % control
T21 construct: purchased Life Technologies (Invitrogen) SelectScreen, Z'-LYTE / Adapta
Description: as §1, §2, §3

[23] = molecular target: T22, DAPK1_h (Homo sapiens, UniProt P53355); conditions: KM ATP, read-out: % control
T22 construct: purchased Life Technologies (Invitrogen) SelectScreen, Z'-LYTE / Adapta
Description: as §1, §2, §3

[24] = molecular target: T23, Rsk4_h (Homo sapiens, UniProt Q9UK32); conditions: KM ATP, read-out: % control
T23 construct: purchased Life Technologies (Invitrogen) SelectScreen, Z'-LYTE / Adapta
Description: as §1, §2, §3

[25] = molecular target: T24, GSK3-alpha_h (Homo sapiens, UniProt P49840); conditions: KM ATP, read-out: % control
T24 construct: purchased Life Technologies (Invitrogen) SelectScreen, Z'-LYTE / Adapta
Description: as §1, §2, §3

[26] = molecular target: T25, EphA5_h (Homo sapiens, UniProt P54756); conditions: KM ATP, read-out: % control
T25 construct: purchased Life Technologies (Invitrogen) SelectScreen, Z'-LYTE / Adapta
Description: as §1, §2, §3

[27] = molecular target: T26, Fgr_h (Homo sapiens, UniProt P09769); conditions: KM ATP, read-out: % control
T26 construct: purchased Life Technologies (Invitrogen) SelectScreen, Z'-LYTE / Adapta
Description: as §1, §2, §3

[28] = molecular target: T27, BRAF V599E (Homo sapiens, UniProt P15056, V600E); conditions: 100 µM ATP, read-out: % control
T27 construct: purchased Life Technologies (Invitrogen) SelectScreen, Z'-LYTE / Adapta
Description: as §1, §2, §3

[29] = molecular target: T28, CDK7_h (Homo sapiens, UniProt P50613); conditions: KM ATP, read-out: % control
T28 construct: purchased Life Technologies (Invitrogen) SelectScreen, Z'-LYTE / Adapta
Description: as §1, §2, §3

[30] = molecular target: T29, EGFR_L858R_h (Homo sapiens, UniProt P00533, L858R); conditions: KM ATP, read-out: % control
T29 construct: purchased Life Technologies (Invitrogen) SelectScreen, Z'-LYTE / Adapta
Description: as §1, §2, §3

[31] = molecular target: T30, FGFR3_K650E_h (Homo sapiens, UniProt P22607, K650E); conditions: KM ATP, read-out: % control
T30 construct: purchased Life Technologies (Invitrogen) SelectScreen, Z'-LYTE / Adapta
Description: as §1, §2, §3

[32] = molecular target: Fms_h (Homo sapiens, UniProt P07333)
Description: as §1, §2, §3

[33] = molecular target: T31, Tie2_h (Homo sapiens, UniProt Q02763); conditions: KM ATP, read-out: % control
T31 construct: purchased Life Technologies (Invitrogen) SelectScreen, Z'-LYTE / Adapta
Description: as §1, §2, §3

[34] = molecular target: T32, HIPK1_h (Homo sapiens, UniProt Q86Z02); conditions: KM ATP, read-out: % control
T32 construct: purchased Life Technologies (Invitrogen) SelectScreen, Z'-LYTE / Adapta
Description: as §1, §2, §3

[35] = 3 µM, KM ATP, read-out: % control
[36] = 10-point dose-response, commercial vendor

JAK1_h, sequence (P23458 whole entry): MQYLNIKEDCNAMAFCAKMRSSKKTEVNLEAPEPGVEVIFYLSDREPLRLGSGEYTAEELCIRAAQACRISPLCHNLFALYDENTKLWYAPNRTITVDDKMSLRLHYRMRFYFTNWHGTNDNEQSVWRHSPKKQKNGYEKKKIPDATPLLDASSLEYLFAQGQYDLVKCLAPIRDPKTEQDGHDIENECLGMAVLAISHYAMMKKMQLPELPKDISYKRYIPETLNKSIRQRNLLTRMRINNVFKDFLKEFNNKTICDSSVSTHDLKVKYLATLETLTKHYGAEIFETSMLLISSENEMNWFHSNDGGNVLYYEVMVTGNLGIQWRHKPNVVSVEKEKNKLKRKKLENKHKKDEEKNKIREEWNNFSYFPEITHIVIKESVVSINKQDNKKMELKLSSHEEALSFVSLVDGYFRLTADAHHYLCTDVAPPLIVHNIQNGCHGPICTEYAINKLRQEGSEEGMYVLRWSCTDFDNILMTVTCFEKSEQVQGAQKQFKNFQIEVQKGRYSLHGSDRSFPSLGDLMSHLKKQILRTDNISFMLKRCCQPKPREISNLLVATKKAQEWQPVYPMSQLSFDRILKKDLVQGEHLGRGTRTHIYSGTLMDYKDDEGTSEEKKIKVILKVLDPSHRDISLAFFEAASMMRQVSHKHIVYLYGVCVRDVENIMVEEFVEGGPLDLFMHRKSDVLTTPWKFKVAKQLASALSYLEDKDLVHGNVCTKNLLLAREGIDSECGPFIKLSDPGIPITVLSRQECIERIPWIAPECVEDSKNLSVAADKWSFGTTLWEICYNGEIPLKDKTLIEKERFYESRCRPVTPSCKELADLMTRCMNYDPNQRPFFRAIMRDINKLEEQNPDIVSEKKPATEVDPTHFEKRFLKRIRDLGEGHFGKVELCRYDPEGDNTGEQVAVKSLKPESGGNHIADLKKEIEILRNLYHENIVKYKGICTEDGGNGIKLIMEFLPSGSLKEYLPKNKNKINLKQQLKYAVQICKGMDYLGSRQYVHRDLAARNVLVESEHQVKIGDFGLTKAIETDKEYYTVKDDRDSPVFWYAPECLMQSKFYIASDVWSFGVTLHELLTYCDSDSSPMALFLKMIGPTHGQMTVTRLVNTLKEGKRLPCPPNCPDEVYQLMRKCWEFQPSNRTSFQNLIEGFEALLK
Fms_h, sequence (P07333 20-972): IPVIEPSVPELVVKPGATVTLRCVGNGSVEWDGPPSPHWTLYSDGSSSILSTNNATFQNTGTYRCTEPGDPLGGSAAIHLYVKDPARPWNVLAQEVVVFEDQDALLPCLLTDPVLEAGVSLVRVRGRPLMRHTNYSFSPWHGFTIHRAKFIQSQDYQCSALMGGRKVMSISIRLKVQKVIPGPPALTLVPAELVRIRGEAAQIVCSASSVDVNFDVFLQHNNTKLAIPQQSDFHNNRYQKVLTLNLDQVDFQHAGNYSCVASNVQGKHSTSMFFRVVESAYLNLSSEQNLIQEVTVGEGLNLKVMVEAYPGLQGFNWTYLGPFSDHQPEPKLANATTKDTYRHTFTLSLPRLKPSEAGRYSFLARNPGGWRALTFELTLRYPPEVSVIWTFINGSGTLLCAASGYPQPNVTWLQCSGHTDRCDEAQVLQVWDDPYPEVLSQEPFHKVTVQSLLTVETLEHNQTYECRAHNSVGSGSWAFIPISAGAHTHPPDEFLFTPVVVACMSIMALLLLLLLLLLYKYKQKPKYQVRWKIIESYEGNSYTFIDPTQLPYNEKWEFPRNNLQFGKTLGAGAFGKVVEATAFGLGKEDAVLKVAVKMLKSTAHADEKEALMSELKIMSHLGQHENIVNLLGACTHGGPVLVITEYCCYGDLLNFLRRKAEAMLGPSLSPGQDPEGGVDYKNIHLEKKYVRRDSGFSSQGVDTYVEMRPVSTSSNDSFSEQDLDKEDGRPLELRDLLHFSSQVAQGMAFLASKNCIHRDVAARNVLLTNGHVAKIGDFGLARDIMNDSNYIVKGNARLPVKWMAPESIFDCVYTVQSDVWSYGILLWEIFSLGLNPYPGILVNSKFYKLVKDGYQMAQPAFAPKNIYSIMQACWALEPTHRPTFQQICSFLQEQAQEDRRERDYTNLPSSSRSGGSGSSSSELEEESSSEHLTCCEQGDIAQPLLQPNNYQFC
T31 sequence (Q02763 23-1124): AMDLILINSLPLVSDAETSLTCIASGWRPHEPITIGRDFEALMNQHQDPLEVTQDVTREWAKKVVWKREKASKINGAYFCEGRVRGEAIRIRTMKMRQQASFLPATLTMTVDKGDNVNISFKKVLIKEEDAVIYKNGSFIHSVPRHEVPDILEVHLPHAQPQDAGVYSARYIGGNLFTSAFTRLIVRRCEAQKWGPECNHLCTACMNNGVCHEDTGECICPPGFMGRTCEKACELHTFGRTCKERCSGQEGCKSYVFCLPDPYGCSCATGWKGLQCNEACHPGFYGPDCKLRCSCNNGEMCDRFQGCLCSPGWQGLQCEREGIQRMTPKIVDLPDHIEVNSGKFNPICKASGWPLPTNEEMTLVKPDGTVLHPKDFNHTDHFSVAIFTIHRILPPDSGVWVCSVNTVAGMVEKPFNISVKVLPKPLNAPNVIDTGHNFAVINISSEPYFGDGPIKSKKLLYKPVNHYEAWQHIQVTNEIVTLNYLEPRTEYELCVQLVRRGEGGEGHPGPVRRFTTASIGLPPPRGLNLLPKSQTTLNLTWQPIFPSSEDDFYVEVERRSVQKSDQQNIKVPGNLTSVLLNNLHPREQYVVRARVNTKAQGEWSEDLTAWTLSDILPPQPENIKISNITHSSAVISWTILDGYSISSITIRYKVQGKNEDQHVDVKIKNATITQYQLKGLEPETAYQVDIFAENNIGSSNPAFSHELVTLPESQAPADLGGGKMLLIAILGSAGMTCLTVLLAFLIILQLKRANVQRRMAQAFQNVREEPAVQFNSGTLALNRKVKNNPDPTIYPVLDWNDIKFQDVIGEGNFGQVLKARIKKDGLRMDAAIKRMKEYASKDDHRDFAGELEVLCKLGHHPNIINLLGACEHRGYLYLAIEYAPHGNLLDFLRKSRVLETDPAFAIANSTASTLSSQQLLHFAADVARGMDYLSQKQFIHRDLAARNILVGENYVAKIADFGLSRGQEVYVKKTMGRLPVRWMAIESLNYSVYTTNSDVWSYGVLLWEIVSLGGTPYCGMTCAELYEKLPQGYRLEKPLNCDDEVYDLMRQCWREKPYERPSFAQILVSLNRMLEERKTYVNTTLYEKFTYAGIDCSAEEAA
T2 sequence (P51817 whole entry): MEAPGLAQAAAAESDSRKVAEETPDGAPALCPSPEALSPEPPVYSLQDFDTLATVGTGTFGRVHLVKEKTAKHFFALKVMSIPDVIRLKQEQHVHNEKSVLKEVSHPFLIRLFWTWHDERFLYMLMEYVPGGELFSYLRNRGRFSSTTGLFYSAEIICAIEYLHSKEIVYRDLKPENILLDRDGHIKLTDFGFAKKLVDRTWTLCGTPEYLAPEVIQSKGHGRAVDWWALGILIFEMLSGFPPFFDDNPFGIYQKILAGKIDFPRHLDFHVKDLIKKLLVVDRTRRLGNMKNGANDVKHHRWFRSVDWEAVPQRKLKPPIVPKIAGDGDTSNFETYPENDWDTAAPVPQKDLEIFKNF
T22 sequence (P53355 whole entry): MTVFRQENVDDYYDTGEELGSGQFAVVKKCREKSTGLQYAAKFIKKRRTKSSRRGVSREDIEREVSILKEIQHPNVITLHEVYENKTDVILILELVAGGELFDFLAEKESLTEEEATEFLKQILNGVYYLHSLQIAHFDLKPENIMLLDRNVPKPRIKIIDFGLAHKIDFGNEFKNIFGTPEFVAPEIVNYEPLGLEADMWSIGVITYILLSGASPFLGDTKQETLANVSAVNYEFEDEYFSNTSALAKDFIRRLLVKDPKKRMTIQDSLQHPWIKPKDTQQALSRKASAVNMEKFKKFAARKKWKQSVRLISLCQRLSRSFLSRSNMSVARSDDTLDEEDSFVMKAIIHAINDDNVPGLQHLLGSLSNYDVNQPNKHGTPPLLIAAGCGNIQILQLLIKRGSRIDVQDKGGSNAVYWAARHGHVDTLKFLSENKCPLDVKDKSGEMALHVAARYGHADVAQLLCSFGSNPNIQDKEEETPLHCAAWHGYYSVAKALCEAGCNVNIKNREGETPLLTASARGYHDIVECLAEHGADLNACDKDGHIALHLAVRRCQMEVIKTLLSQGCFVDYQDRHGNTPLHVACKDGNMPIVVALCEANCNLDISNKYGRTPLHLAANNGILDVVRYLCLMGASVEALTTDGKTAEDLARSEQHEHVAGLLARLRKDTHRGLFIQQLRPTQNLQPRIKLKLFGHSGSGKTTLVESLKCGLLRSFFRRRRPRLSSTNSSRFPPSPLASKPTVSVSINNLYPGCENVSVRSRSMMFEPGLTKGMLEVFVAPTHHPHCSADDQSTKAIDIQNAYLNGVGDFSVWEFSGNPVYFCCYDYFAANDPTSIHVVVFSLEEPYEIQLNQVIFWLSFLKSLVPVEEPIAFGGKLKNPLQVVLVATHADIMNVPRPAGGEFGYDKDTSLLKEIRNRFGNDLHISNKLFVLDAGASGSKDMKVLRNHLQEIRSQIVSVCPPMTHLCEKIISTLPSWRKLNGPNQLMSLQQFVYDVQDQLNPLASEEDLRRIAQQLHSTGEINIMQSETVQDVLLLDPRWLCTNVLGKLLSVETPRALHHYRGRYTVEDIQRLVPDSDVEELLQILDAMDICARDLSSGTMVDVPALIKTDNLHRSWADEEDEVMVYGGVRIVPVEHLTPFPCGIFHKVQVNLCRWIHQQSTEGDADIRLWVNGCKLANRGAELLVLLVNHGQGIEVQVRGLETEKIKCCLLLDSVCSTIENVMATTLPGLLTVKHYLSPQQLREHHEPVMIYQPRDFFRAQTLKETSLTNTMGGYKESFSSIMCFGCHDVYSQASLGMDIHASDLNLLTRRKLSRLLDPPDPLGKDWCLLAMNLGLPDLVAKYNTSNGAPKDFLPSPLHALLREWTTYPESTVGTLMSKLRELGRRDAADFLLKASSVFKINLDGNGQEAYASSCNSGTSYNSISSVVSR

What does the source list for `c1cc(CC2CCOCC2)n2nc(Nc3ccc4c(NC5CCOCC5)n[nH]c4c3)nc2c1` [CC-509, [3-(2H-3,4,5,6-tetrahydropyran-4-ylamino)(1H-indazol-6-yl)][5-(2H-3,4,5,6-tetrahydropyran-4-ylmethyl)(2H-1,2,4-triazolo[1,5-a]pyridin-2-yl)]amine]?
remaining activity at 3 µM [1]: 72%; remaining activity at 3 µM [2]: 95%; remaining activity at 3 µM [3]: 53%; remaining activity at 3 µM [4]: 95%; remaining activity at 3 µM [5]: 9%; remaining activity at 3 µM [6]: 6%; remaining activity at 3 µM [7]: 97%; remaining activity at 3 µM [8]: 52%; remaining activity at 3 µM [9]: 70%; remaining activity at 3 µM [10]: 94%; remaining activity at 3 µM [11]: 2%; remaining activity at 3 µM [12]: 99%; remaining activity at 3 µM [13]: 87%; remaining activity at 3 µM [14]: 48%; remaining activity at 3 µM [15]: 86%; remaining activity at 3 µM [16, 35]: 0%; IC50 [16, 36]: 40 nM and 44 nM; remaining activity at 3 µM [17]: 94%; remaining activity at 3 µM [18]: 65%; remaining activity at 3 µM [19]: 78%; remaining activity at 3 µM [20]: 82%; remaining activity at 3 µM [21]: 104%; remaining activity at 3 µM [22]: 96%; remaining activity at 3 µM [23]: 104%; remaining activity at 3 µM [24]: 32%; remaining activity at 3 µM [25]: 91%; remaining activity at 3 µM [26]: 89%; remaining activity at 3 µM [27]: 21%; remaining activity at 3 µM [28]: 88%; remaining activity at 3 µM [29]: 94%; remaining activity at 3 µM [30]: 101%; remaining activity at 3 µM [31]: 54%; remaining activity at 3 µM [32, 35]: 2%; IC50 [32, 36]: 8.61 nM; remaining activity at 3 µM [33]: 87%; remaining activity at 3 µM [34]: 94%
